These results are taken from US20050180935A1, “Deodorant cosmetic composition comprising a combination of zinc gluconate and an antiperspirant aluminum salt” (priority 2003, published 2005).

The nature of the assay: deodorant efficacy test: odor intensity of incubated sweat rated by expert panel. Also noted: species or system human. Conditions: 24 h at 37° C, vs control sweat sample. The procedure:
Collections of underarm sweat were taken in a sauna from 6 volunteers; the samples of individual sweat were stored in ice for a few hours and were initially almost odorless. They were mixed together and divided into 1 ml aliquots. The active agents were added to the aliquots, which were then incubated in an oven at 37° C. After incubation for 24 hours, a panel of experts evaluated the intensity of the odor in comparison with a control sample: 1 ml of sweat incubated without an active agent. The intensity was evaluated on a scale ranging from 0 (no odor) to 4 (very strong odor).
The results below are expressed as a percentage of variation of the intensity of the odor in comparison with the control sweat sample (mean of the percentages of variation at T24h).

As to `Oc1cc(Cl)ccc1Oc1ccc(Cl)cc1Cl` [(B), 2,4,4′-trichloro-2′-hydroxydiphenyl ether], where the note is “0.4 mg AM/ml of sweat”, the “% of reduction in the intensity of the odor” value (shortened to “% of reduction”) is −49%. As for aluminum chlorohydrate [ACH], under “0.1 mg AM/ml of sweat”, the “% of reduction” value is −37%. On to zinc gluconate [(A)], for which, for the setting “0.5 mg AM/ml of sweat”, the “% of reduction” value is listed as −19%. Consider zinc ricinoleate [(C)], for which the “% of reduction” value (0.3 mg AM/ml of sweat) is −4%.
